# In patent US9494589B2, “Method of determining the probability of a therapeutic response in cancer chemotherapy with cardiac glycoside” (priority 2007, dated 2016):
# Assays:
# BRO cells = experiment: In vitro cytotoxicity, MTT assay of cell proliferation; format: cell-based, human; conditions: Melanoma, 72 hr
# Excerpt: (§1) As defined in the Tables above, an “in vitro response” denotes the extent to which proliferation of a given tumor cell line is inhibited with a stated concentration of drug (cardiac glycoside) over a defined period of time. A designation of “no response” denotes less than 50% growth inhibition at any of the multiple drug concentrations tested. That is, no concentration could be identified as an IC50 value (that concentration producing inhibition of cell growth by 50% over the stated period of time of the experiment). Accordingly, were this tumor cell line growing in a mammal such as a human, it is probable that the drug would be ineffective in producing significant inhibition of tumor growth. The designation of “partial response” in the Table above denotes the capacity of a given cardiac glycoside such as oleandrin or bufalin to inhibit cell proliferation by more than 50% but less than 75% relative to nontreated tumor cell growth. Accordingly, this would equate to a partial or less than complete therapeutic response of the tumor to the cardiac glycoside if this product were used to treat tumor growth in a mammal such as a human. […] Accordingly, it is probable that total inhibition of tumor growth (or a complete therapeutic response, in a mammal might be achieved.
# (§2) Cells were grown in their relevant media as indicated in the table below at a density of 1×10^4 cells/well. After a 24 hr incubation period, cells were treated with various concentrations of oleandrin (1 to 500 nM). After an additional 72 hr, inhibition of cellular proliferation was assessed by MTT assay (23). Absorbance was read at a wavelength of 570 nm and a reference wavelength of 650 nm using a V-Max Micro-plate Reader by Molecular Devices, Inc. (Sunnyvale, Calif.). The relative extent of inhibition of cell proliferation due to the presence of a given concentration of oleander extract or other plant extract containing a cardiac glycoside compound(s) can be derived by comparing treated to non-treated cell numbers after a set period of time allowing for cell growth (e.g. 24-72 hr).
# BXPC3 cells = experiment: as above; format: cell-based, human; conditions: BXPC3, Pancreas; 72 hr
# Excerpt: as §1, §2
# CACO2 cells = experiment: as above; format: cell-based, human; conditions: CACO2, Colon, 72 hr
# Excerpt: as §1, §2
# DOD-1 cells = experiment: as above; format: cell-based, human; conditions: DOD-1, Colon, 72 hr
# Excerpt: as §1, §2
# HCT116 cells = experiment: as above; format: cell-based, human; conditions: HCT116, Colon, 72 hr
# Excerpt: as §1, §2
# HT29 cells = experiment: as above; format: cell-based, human; conditions: HT29, Colon, 72 hr
# Excerpt: as §1, §2
# LS174T cells = experiment: as above; format: cell-based, human; conditions: Colon, 72 hr
# Excerpt: as §1, §2
# MCF7 cells = experiment: as above; format: cell-based, human; conditions: MCF7, Breast; 72 hr
# Excerpt: as §1, §2
# MDA231 cells = experiment: as above; format: cell-based, human; conditions: MDA231, Breast; 72 hr
# Excerpt: as §1, §2
# MiaPaca cells = experiment: as above; format: cell-based, human; conditions: 72 hr; for IC50: Homo sapiens, MIA PaCa-2, Pancreas; for In vitro response: Pancreas
# Excerpt: as §1, §2
# PANC1 cells = experiment: as above; format: cell-based, human; conditions: PANC1, Pancreas, 72 hr; for IC50: Homo sapiens, PANC-1
# Excerpt: as §1, §2
# SUM149 cells = experiment: as above; format: cell-based, human; conditions: SUM149, Breast, 72 hr
# Excerpt: as §1, §2
# Human melanoma BRO cells = experiment: Cytotoxicity comparison of oleandrin and extracts, crystal violet staining; format: cell-based; conditions: oleandrin equivalent concentrations, 72 hr
# Method: (§3) The cytotoxic potential of both extracts are compared directly with that of oleandrin. The samples contained the same amounts of oleandrin even though their concentration of oleandrin differed due to the concentration of oleandrin present in the extracts.
# (§4) BRO (human melanoma) and Panc-1 (human pancreatic cancer) cells (8×10^3/well) were plated in a 96 well plate and allowed to attach overnight. Drug or extracts were then added to the cells. After 72 hr of incubation, relative cell proliferation (relative to control untreated cells) was assessed by crystal violet staining method.
# [1] = system: Human pancreatic cancer PANC-1 cells; experiment: as above; format: cell-based; conditions: oleandrin equivalent concentrations, 72 hr
# Method: as §3, §4
# [2] = system: non-transfected Panc-1 cells; experiment: Sensitivity to oleandrin of non-transfected Panc-1 cells; format: cell-based; conditions: Homo sapiens
# Excerpt: (§5) Still further proof of the relative importance of the α3/α1 isoform ratio toward predictability of a therapeutic response by a target malignant tissue to treatment with a cardiac glycoside was established by transfection of Panc-1 cells with α1 subunit isoform. The Na, K-ATPase α1 subunit isoform was transfected to Panc-1 cells, which normally lack α1 expression. The control sample in FIG. 5A is for non-transfected Panc-1 cells, and the α1cDNA sample in FIG. 5A is for Panc-1 cells transfected with the α1 subunit isoform. As a result, the ratio of α3 to α1 was reduced in the transfected Panc-1 cells (FIG. 5B). The sensitivity of the transfected Panc-1 cells to oleandrin treatment was then evaluated.
# [3] = system: α1 transfected Panc-1 cells; experiment: Sensitivity to oleandrin of Panc-1 cells transfected with α1 subunit isoform; format: cell-based; conditions: Homo sapiens
# Excerpt: as §5
# [4] = system: Panc-1 cells transfected with α3 siRNA; experiment: Sensitivity to oleandrin of Panc-1 cells transfected with α3 siRNA, Calcein AM viability; format: cell-based, human; conditions: α3 expression reduced by siRNA; 10 to 50 nM, 48 hr
# Excerpt: Further proof of the relative importance of the α3/α1 isoform ratio toward predictability of a therapeutic response by a target malignant tissue to treatment with a cardiac glycoside was established as follows. Artificial down-regulation of the expression of α3 isoform in human pancreatic cancer cells, i.e. manipulation of isoform content of subunits of Na, K-ATPase, was achieved by transfection of cells with siRNA (silencing RNA) specific to the α3 isoform. […] Quantitation of the decreased expression of α3 by Western blot is detailed in FIG. 4B.
# Panc-1 cells were plated in 6 and 48 well plates and allowed to attach overnight. Transient transfection of α3 siRNA molecules was carried out using siPORT™ Amine Transfection Agent (Ambion Austin, Tex.) and 0.4 μM α3 silencing RNA (Santa Cruz Biotech.) following the manufacture's instructions. Twenty-four hr after transfection, cells were treated with 10 to 50 nM oleandrin for 48 hr. Protein was collected from the 6 well plates for Western blot analysis and cell viability assessment was carried out by Calcien AM staining.
# human tumor cell lines = experiment: Mean IC50 of growth inhibition in groups of tumor cell lines by α3/α1 isoform ratio; format: cell-based; conditions: ten cell lines α3/α1 >1.0 versus six cell lines α3/α1 <1.0
# Method: FIG. 3A depicts a plot of concentration (nM) of oleandrin (provided as oleandrin) versus the percentage of growth of control. […] Exemplary cell lines for the groups are: Group I-MDA231, BXPC3, MCF-7; Group II-SUM149, BRO; Group III-Panc-1, CaCo2. The response data are as predicted by the isoform ratio data. In order to establish the robustness of the method and kit of the invention, a statistical analysis of cellular response data was conducted. The data in FIG. 3B depict the relative ability of oleandrin-containing composition to inhibit human tumor cell proliferation in vitro. The data are depicted as Mean±SD. Oleandrin mediated growth inhibition was examined in ten cell lines (representing a variety of solid tumors) in which the relative subunit content α3/α1 isoform ratio >1.0 and six cell lines in which the α3/α1 isoform ratio <1.0.
# Student's t test was used to determine the statistical differences between various experimental groups; a value of P<0.05 was considered to be significant.
# [5] = system: rodent (mouse and rat) tumor cell lines; experiment: In vitro proliferation of rodent tumor cell lines; format: cell-based; conditions: rodent tumor cell lines lacking α3 subunit isoform
# Excerpt: Rodent (rat or mouse) cancer cells can be used as a negative control sample. FIG. 1A depicts a film developed against the gel of a Western blot analysis of rodent tumor cell lines. […] Human tumor cell lines are generally more sensitive to treatment with cardiac glycoside-containing composition than are murine tumor cells (FIG. 1B). The inventors believe this difference in therapeutic responsiveness is due to the differences in the ratio of α3 to α1 isoforms in the two different species, as noted above.
smiles,measurement,setting,value
CO[C@H]1C[C@H](O[C@H]2CC[C@@]3(C)[C@H](CC[C@@H]4[C@@H]3CC[C@]3(C)[C@@H](C5=CC(=O)OC5)[C@@H](OC(C)=O)C[C@]43O)C2)O[C@@H](C)[C@@H]1O [oleandrin],IC50,BRO cells; Homo sapiens,8.2 nM
same,In vitro response,BRO cells,Complete*** (Denotes greater than 75% growth inhibition achieved at 62 nM)
same,In vitro response,BXPC3 cells,No* (Denotes less than 50% growth inhibition achieved at concentrations up to 125 nM)
same,In vitro response,CACO2 cells,Complete*** (Denotes greater than 75% growth inhibition achieved at 62 nM)
same,IC50,"CACO2 cells; Homo sapiens, Caco-2",9.4 nM
same,In vitro response,DOD-1 cells,Complete*** (Denotes greater than 75% growth inhibition achieved at 62 nM)
same,IC50,DOD-1 cells; Homo sapiens,19.6 nM
same,In vitro response,HCT116 cells,Partial** (Denotes greater than 50% but less than 75% growth inhibition achieved at 62 nM)
same,IC50,"HCT116 cells; Homo sapiens, HCT-116",36.2 nM
same,In vitro response,HT29 cells,Complete*** (Denotes greater than 75% growth inhibition achieved at 62 nM)
same,IC50,"HT29 cells; Homo sapiens, HT-29",15.6 nM
same,In vitro response,LS174T cells,Complete*** (Denotes greater than 75% growth inhibition achieved at 62 nM)
same,IC50,LS174T cells; Homo sapiens,20.7 nM
same,In vitro response,MCF7 cells,No* (Denotes less than 50% growth inhibition achieved at concentrations up to 125 nM)
same,In vitro response,MDA231 cells,No* (Denotes less than 50% growth inhibition achieved at concentrations up to 125 nM)
same,IC50,MiaPaca cells,14.2 nM
same,In vitro response,MiaPaca cells,Complete*** (Denotes greater than 75% growth inhibition achieved at 62 nM)
same,IC50,PANC1 cells,6.1 nM
same,In vitro response,PANC1 cells,Complete*** (Denotes greater than 75% growth inhibition achieved at 62 nM)
same,IC50,SUM149 cells; Homo sapiens,22.5 nM
same,In vitro response,SUM149 cells,Partial** (Denotes greater than 50% but less than 75% growth inhibition achieved at 62 nM)
same,IC50,Human melanoma BRO cells,17 nM
same,IC50,[1],10 nM
same,IC50,[2],4.1 nM
same,IC50,[3],> 50 nM
same,Sensitivity of transfected cells to treatment,[4],lose their sensitivity
same,Difference in mean IC50 between cell line groups,human tumor cell lines,8 fold
same,Inhibition of proliferation in vitro,[5],not significantly inhibited
C[C@]12CC[C@H](O)C[C@H]1CC[C@@H]1[C@@H]2CC[C@]2(C)[C@@H](c3ccc(=O)oc3)CC[C@]12O [bufalin],In vitro response,BXPC3 cells,No* (Denotes less than 50% growth inhibition achieved at concentrations up to 125 nM)
same,IC50,MiaPaca cells,2.1 nM
same,In vitro response,MiaPaca cells,Complete*** (Denotes greater than 75% growth inhibition achieved at 62 nM)
same,IC50,PANC1 cells,1.2 nM
same,In vitro response,PANC1 cells,Complete*** (Denotes greater than 75% growth inhibition achieved at 62 nM)
same,Inhibition of proliferation in vitro,[5],not significantly inhibited
C[C@@H]1O[C@@H](O[C@H]2C[C@@H](O)[C@]3(CO)[C@H]4[C@H](O)C[C@]5(C)[C@@H](C6=CC(=O)OC6)CC[C@]5(O)[C@@H]4CC[C@]3(O)C2)[C@H](O)[C@H](O)[C@H]1O [ouabain],Inhibition of proliferation in vitro,[5],not significantly inhibited
